Measurements reported in the supplement of paper PMC11061612.

Columns and labels:
Test in all cases: combination Emax (second highest fraction inhibited in the dose matrix, 72 h); higher = more inhibition; extreme values may be limits of the assay
AM-38 (Glioblastoma) = tested on: AM-38 (Glioblastoma)
Summary of the method: (§1)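 Cell lines in DMEM/F12 or RPMI with 10% FBS were plated in 1536-well plates, held 24 hours at 37°C, 5% CO2, then given two-drug dose matrices for 72 hours (DMSO typically 0.2%). Viability was read by CellTiter-Glo 2.0 luminescence and scaled as inhibition from 0 (vehicle wells) to 1 (blank wells). Combination Emax is the second-highest inhibition in the matrix; Bliss excess is observed combination effect minus expected EA + EB − EA·EB, EA and EB being single-agent effects.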

[1] = tested on: HT-1080 (Other Solid Carcinomas)
Summary of the method: as §1

[2] = tested on: IA-LM (Non-Small Cell Lung Carcinoma)
Summary of the method: as §1

KALS-1 (Glioblastoma) = tested on: KALS-1 (Glioblastoma)
Summary of the method: as §1

[3] = tested on: LCLC-103H (Non-Small Cell Lung Carcinoma)
Summary of the method: as §1

[4] = tested on: MDA-MB-415 (Breast Carcinoma)
Summary of the method: as §1

[5] = tested on: MOLP-8 (Plasma Cell Myeloma)
Summary of the method: as §1

[6] = tested on: MONO-MAC-6 (Acute Myeloid Leukemia)
Summary of the method: as §1

[7] = tested on: MS-1 (Small Cell Lung Carcinoma)
Summary of the method: as §1

NB1 (Neuroblastoma) = tested on: NB1 (Neuroblastoma)
Summary of the method: as §1

[8] = tested on: NCI-H3118 (Head and Neck Carcinoma)
Summary of the method: as §1

[9] = tested on: P30-OHK (B-Lymphoblastic Leukemia)
Summary of the method: as §1

[10] = tested on: P32-ISH (Burkitt's Lymphoma)
Summary of the method: as §1

[11] = tested on: PA-TU-8988T (Pancreatic Carcinoma)
Summary of the method: as §1

[12] = tested on: PL4 (Pancreatic Carcinoma)
Summary of the method: as §1

[13] = tested on: RCC-JW (Kidney Carcinoma)
Summary of the method: as §1

[14] = tested on: Raji (Burkitt's Lymphoma)
Summary of the method: as §1

[15] = tested on: SUP-M2 (T-Cell Non-Hodgkin's Lymphoma)
Summary of the method: as §1

[16] = tested on: SiHa (Cervical Carcinoma)
Summary of the method: as §1

[17] = tested on: T84 (Colorectal Carcinoma)
Summary of the method: as §1

SMILES | combination Emax (AM-38 (Glioblastoma)) | combination Emax [1] | combination Emax [2] | combination Emax (KALS-1 (Glioblastoma)) | combination Emax [3] | combination Emax [4] | combination Emax [5] | combination Emax [6] | combination Emax [7] | combination Emax (NB1 (Neuroblastoma)) | combination Emax [8] | combination Emax [9] | combination Emax [10] | combination Emax [11] | combination Emax [12] | combination Emax [13] | combination Emax [14] | combination Emax [15] | combination Emax [16] | combination Emax [17]
Cc1cc2ncnn2cc1Nc1ncc2c(n1)n(C1CCOCC1)c(=O)n2C [AZD7648] + C[C@@H]1COCCN1C2=NC(=NC(=C2)C3(CC3)[S@](=N)(=O)C)C4=C5C=CNC5=NC=C4 [AZD6738] (first compound max 10 µM, 7x7, partner max 10 µM) | 0.758 | 0.426 | 0.402 | 0.866 | 0.58 | 0.515 | 0.822 | 0.899 | 0.728 | 0.775 | 0.647 | 0.811 | 0.938 | 0.378 | 0.631 | 0.568 | 0.779 | 0.992 | 0.32 | 0.706
COc1nnc2ccc(N3CCC(c4ccc(OCCN5CCN(C)C(=O)[C@H]5C)cc4)CC3)nn12 [AZD5153] + CCN(CCO)CCCOc1ccc2c(Nc3cc(CC(=O)Nc4cccc(F)c4)[nH]n3)ncnc2c1 [AZD2811] (first compound max 1 µM, 7x7, partner max 1 µM) | 0.433 | 0.387 | 0.401 | 0.606 | 0.511 | 0.502 | 0.933 | 0.995 | 0.854 | 0.556 | 0.55 | 1 | 0.873 | 0.695 | 0.53 | 0.3 | 0.558 | 0.994 | 0.571 | 0.202
CN(CCO)CC[C@H](CSc1ccccc1)Nc1ccc(S(=O)(=O)NC(=O)c2ccc(N3CCC([C@@H](O)c4ccccc4-c4ccc(Cl)cc4)CC3)cc2)cc1S(=O)(=O)C(F)(F)F [AZD4320] + CCN(CCO)CCCOc1ccc2c(Nc3cc(CC(=O)Nc4cccc(F)c4)[nH]n3)ncnc2c1 [AZD2811] (first compound max 1 µM, 7x7, partner max 1 µM) | 0.932 | 0.594 | 0.505 | 0.508 | 0.344 | 0.619 | 0.418 | 0.959 | 0.597 | 0.684 | 0.333 | 1 | 0.915 | 0.398 | 0.544 | 0.661 | 0.219 | 0.979 | 0.162 | 0.0513
C=CCn1c(=O)c2cnc(Nc3ccc(N4CCN(C)CC4)cc3)nc2n1-c1cccc(C(C)(C)O)n1 [AZD1775] + O=C(c1cc(Cc2n[nH]c(=O)c3ccccc23)ccc1F)N1CCN(C(=O)C2CC2)CC1 [Olaparib] (first compound max 1 µM, partner max 10 µM) | 0.496 | 0.354 | 0.252 | 0.896 | 0.546 | 0.229 | 0.754 | 0.942 | 0.924 | 0.819 | 0.889 | 0.748 | 0.997 | 0.8 | 0.494 | 0.326 | 0.74 | 0.993 | 0.199 | 0.745
Cn1cnc2c(F)c(Nc3ccc(Br)cc3Cl)c(C(=O)NOCCO)cc21 [Selumetinib] + CCN(CCO)CCCOc1ccc2c(Nc3cc(CC(=O)Nc4cccc(F)c4)[nH]n3)ncnc2c1 [AZD2811] (first compound max 10 µM, 7x7, partner max 1 µM) | 0.542 | 0.387 | 0.28 | 0.417 | 0.376 | 0.248 | 0.417 | 0.703 | 0.179 | 0.566 | 0.537 | 0.835 | 0.867 | 0.321 | 0.572 | 0.132 | 0.0936 | 0.998 | 0.22 | 0.312
Cn1cnc2c(F)c(Nc3ccc(Br)cc3Cl)c(C(=O)NOCCO)cc21 [Selumetinib] + C=CCn1c(=O)c2cnc(Nc3ccc(N4CCN(C)CC4)cc3)nc2n1-c1cccc(C(C)(C)O)n1 [AZD1775] (first compound max 10 µM, partner max 1 µM) | 0.563 | 0.439 | 0.296 | 0.755 | 0.43 | 0.23 | 0.791 | 0.743 | 0.778 | 0.84 | 0.902 | 0.675 | 0.999 | 0.805 | 0.63 | 0.16 | 0.681 | 0.996 | 0.22 | 0.401
CN(CCO)CC[C@H](CSc1ccccc1)Nc1ccc(S(=O)(=O)NC(=O)c2ccc(N3CCC([C@@H](O)c4ccccc4-c4ccc(Cl)cc4)CC3)cc2)cc1S(=O)(=O)C(F)(F)F [AZD4320] + C=CCn1c(=O)c2cnc(Nc3ccc(N4CCN(C)CC4)cc3)nc2n1-c1cccc(C(C)(C)O)n1 [AZD1775] (first compound max 1 µM, partner max 1 µM) | 0.834 | 0.718 | 0.462 | 0.975 | 0.726 | 0.665 | 0.831 | 0.88 | 1 | 0.931 | 0.916 | 1 | 0.994 | 0.922 | 0.708 | 0.712 | 0.591 | 1 | 0.112 | 0.528
Cc1c2c(nn1C)CSCc1cc(n(C)n1)CSc1cc(c3ccccc3c1)OCCCc1c(C(=O)O)n(C)c3c-2c(Cl)ccc13 [AZD5991] + Cn1cnc2c(F)c(Nc3ccc(Br)cc3Cl)c(C(=O)NOCCO)cc21 [Selumetinib] (first compound max 1 µM, 7x7, partner max 3 µM) | 0.709 | 0.428 | 0.24 | 0.24 | 0.176 | 0.398 | 1 | 1 | 0.375 | 0.238 | 0.481 | 0.744 | 1 | 0.393 | 0.573 | 0.228 | 0.756 | 1 | 0.305 | 0.406
CC(=O)c1c(C)c2cnc(Nc3ccc(N4CCNCC4)cn3)nc2n(C2CCCC2)c1=O [Palbociclib] + CC1(C)CCC(CN2CCN(c3ccc(C(=O)NS(=O)(=O)c4ccc(NCC5CCOCC5)c([N+](=O)[O-])c4)c(Oc4cnc5[nH]ccc5c4)c3)CC2)=C(c2ccc(Cl)cc2)C1 [Venetoclax] (first compound max 10 µM, 7x7, partner max 1 µM) | 0.328 | 0.143 | 0.0755 | 0.146 | 0.251 | 0.155 | 0.538 | 0.823 | 0.303 | 0.345 | 0.318 | 0.866 | 0.66 | 0.141 | 0.184 | 0.215 | 0.436 | 0.738 | 0.123 | 0.079
CC1(C)CCC(CN2CCN(c3ccc(C(=O)NS(=O)(=O)c4ccc(NCC5CCOCC5)c([N+](=O)[O-])c4)c(Oc4cnc5[nH]ccc5c4)c3)CC2)=C(c2ccc(Cl)cc2)C1 [Venetoclax] + CCN(CCO)CCCOc1ccc2c(Nc3cc(CC(=O)Nc4cccc(F)c4)[nH]n3)ncnc2c1 [AZD2811] (first compound max 1 µM, 7x7, partner max 1 µM) | 0.221 | 0.27 | 0.249 | 0.661 | 0.333 | 0.231 | 0.406 | 0.981 | 0.34 | 0.606 | 0.207 | 1 | 0.912 | 0.0634 | 0.248 | 0.184 | 0.122 | 0.898 | 0.172 | 0.127
CC(=O)c1c(C)c2cnc(Nc3ccc(N4CCNCC4)cn3)nc2n(C2CCCC2)c1=O [Palbociclib] + Cn1cnc2c(F)c(Nc3ccc(Br)cc3Cl)c(C(=O)NOCCO)cc21 [Selumetinib] (first compound max 10 µM, 7x7, partner max 10 µM) | 0.568 | 0.361 | 0.281 | 0.432 | 0.248 | 0.254 | 0.553 | 0.669 | 0.416 | 0.376 | 0.603 | 0.408 | 0.699 | 0.514 | 0.523 | 0.239 | 0.453 | 0.88 | 0.16 | 0.33
COc1cccc(OCCCN)c1-c1cc(Nc2cnc(C#N)cn2)n[nH]1 [Prexasertib] + C=CCn1c(=O)c2cnc(Nc3ccc(N4CCN(C)CC4)cc3)nc2n1-c1cccc(C(C)(C)O)n1 [AZD1775] (first compound max 1 µM, partner max 1 µM) | 0.857 | 0.576 | 0.64 | 0.901 | 0.854 | 0.584 | 0.909 | 1 | 1 | 0.906 | 0.906 | 0.98 | 1 | 0.898 | 0.852 | 0.703 | 0.977 | 1 | 0.487 | 0.861
